Reference: article PMC8416056, “Aspulvinones Suppress Postprandial Hyperglycemia as Potent α-Glucosidase Inhibitors From Aspergillus terreus ASM-1” (Frontiers in Chemistry, 2021)
Like-named read-outs stand apart in the source and are kept apart here.

How the values were obtained:
[1] = molecular target: T1, α-Glucosidase (EC:3.2.1.20, MAL12) (Saccharomyces cerevisiae, UniProt P53341); assay: biochemical
T1 construct: purchased
Procedure: α-Glucosidase (EC:3.2.1.20, MAL12) from Saccharomyces cerevisiae was dissolved in 0.1 mol/L PBS solutions with a pH of 6.8, and diluted to be a 1.0 U/ml solution. The substrate p-nitrophenyl-[…] (pNPG) was dissolved in PBS to be a 1 mM solution. […] The absorbance of p-nitrophenol was monitored at 405 nm. […] The negative control was performed by adding PBS instead of α-glucosidase, the blank was prepared by adding solvent without tested compounds. The inhibition rate was calculated as Eq. 1: IR% =[(Ac-As)/Ac] × 100% (1) where Ac represents the absorbance of control without sample solution, and As denotes the absorbance of sample.

α-glucosidase [2] = settings: ref Dewi et al., 2014; cited from earlier work
α-glucosidase [3] = molecular target: T2, α-glucosidase (Saccharomyces cerevisiae, UniProt P53341); assay: Enzymatic kinetics of α-glucosidase (Lineweaver–Burk, Dixon and secondary plots); assay type: biochemical; settings: for Inhibition mode: Lineweaver–Burk plots; for KIS: inhibitor binding with enzyme-substrate complex, vertical intercept (1/Vm) versus inhibitor concentration
T2 construct: purchased
T2 sequence (P53341 whole entry): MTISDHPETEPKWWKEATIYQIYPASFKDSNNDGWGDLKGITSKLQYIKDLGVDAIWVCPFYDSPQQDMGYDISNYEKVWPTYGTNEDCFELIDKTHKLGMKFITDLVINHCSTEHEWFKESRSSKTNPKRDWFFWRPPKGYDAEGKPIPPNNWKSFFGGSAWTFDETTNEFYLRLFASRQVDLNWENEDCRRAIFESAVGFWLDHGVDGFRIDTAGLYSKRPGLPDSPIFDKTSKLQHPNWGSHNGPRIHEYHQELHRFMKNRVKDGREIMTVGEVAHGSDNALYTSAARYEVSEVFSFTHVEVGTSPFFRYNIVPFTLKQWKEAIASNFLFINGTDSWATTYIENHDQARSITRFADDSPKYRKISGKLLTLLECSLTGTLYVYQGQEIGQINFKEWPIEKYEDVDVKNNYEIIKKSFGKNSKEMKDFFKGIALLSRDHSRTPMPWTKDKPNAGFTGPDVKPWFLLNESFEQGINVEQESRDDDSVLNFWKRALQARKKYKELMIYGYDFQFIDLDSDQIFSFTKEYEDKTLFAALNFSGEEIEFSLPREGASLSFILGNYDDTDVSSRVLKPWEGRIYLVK
Procedure: pNPG with a concentration range of 100–4,000 μM and α-glucosidase were incubated with different concentrations of inhibitor for 10 min, respectively. 20 μl of 1.0 U/ml enzyme solutions were first mixed with 10 μl of different concentrations of inhibitors, then 50 μl PBS solutions were added, and the mixed solutions were incubated at 37°C for 10 min. Subsequently, 20 μl of pNPG solutions (1.25, 2.5, 5, 10 and 20 mM) were added, and the mixed solutions were further incubated at 37°C for 25 min, the absorbance of reaction solution was measured at 405 nm every 3 min. The kinetic parameters, Michaelis–Menten (Km) and maximum velocity (Vmax), were found using Lineweaver–Burk plots to check the mode of α-glucosidase inhibition for compounds 1 and 4. The dissociation constants between inhibitor and enzyme (Ki) were calculated from Dixon plots. Two inhibition constants, KI or KIS, for inhibitor binding with either free or enzyme-substrate complex, were calculated from secondary plots of the slopes of the straight lines ([…]) or vertical intercept (1/Vmax) verse the concentration of inhibitors, respectively ([Jenis et al., 2019]).

female C57BL/6J mice [4] = settings: 25 mg/kg BW i.g.
Procedure: Female C57BL/6J mice, 6 weeks old, weighting 16–20 g, were obtained from the Skbex Biotechenology Company Limited (Henan, China). The animals were housed in Experimental Animal Center of Zhoukou Normal University under 12 h light-dark cycle at controlled temperature (22 ± 1°C), and provided with a standard pellet diet and water ad libitum. The mice were adapted to diet and general conditions of vivarium for 1 week before the experiment. After an 16 h fasting, the mice were divided into three groups randomly (eight mice each group). […] Mice were fasted 16 h and then intragastrically (i.g.) administrated the inhibitors, 15 min later, 2 g/kg BW of sucrose or 2 g/kg BW of maltose solution was given i.g. to the animals. Blood samples were taken from the tail vein at 0, 30, 60, and 120 min after sucrose or maltose loading, and blood glucose was measured with Accu-Chek Active glucometer (Roche, Germany). […] All animals were cared under the frame of the China Council on Animal Care and all procedures were approved by the Health Sciences Animal Welfare Committee of Zhoukou Normal University.

female C57BL/6J mice [5] = assay: Oral sucrose tolerance test; assay type: in vivo; settings: sucrose 2 g/kg BW; for decrease of the AUC (blood glucose, 0–120 min): versus negative control
Procedure: Female C57BL/6J mice, 6 weeks old, weighting 16–20 g, were obtained from the Skbex Biotechenology Company Limited (Henan, China). The animals were housed in Experimental Animal Center of Zhoukou Normal University under 12 h light-dark cycle at controlled temperature (22 ± 1°C), and provided with a standard pellet diet and water ad libitum. The mice were adapted to diet and general conditions of vivarium for 1 week before the experiment. After an 16 h fasting, the mice were divided into three groups randomly (eight mice each group). […] Mice were fasted 16 h and then intragastrically (i.g.) administrated the inhibitors, 15 min later, 2 g/kg BW of sucrose or 2 g/kg BW of maltose solution was given i.g. to the animals. Blood samples were taken from the tail vein at 0, 30, 60, and 120 min after sucrose or maltose loading, and blood glucose was measured with Accu-Chek Active glucometer (Roche, Germany). Area under the curve (AUC) over 0–120 min was calculated by the trapezoidal method. All animals were cared under the frame of the China Council on Animal Care and all procedures were approved by the Health Sciences Animal Welfare Committee of Zhoukou Normal University.

α-glucosidase [6] = molecular target: T2, α-glucosidase; assay: Circular dichroism spectroscopy of α-glucosidase with inhibitor; assay type: binding; parameters: dose or concentration left out as unconfirmed; settings: after the addition of (molar ratios 20:1 and 40:1), 20°C
Procedure: The CD measurements were performed in a wavelength range of 190–250 nm at a speed of 60 nm/min. All measurements were carried out at 20°C using 1.0 mm path length quartz cuvette and sodium phosphate buffer (pH 6.8) was considered as a blank. […] All the results were expressed as ellipticity in mill degrees.

α-glucosidase [7] = molecular target: T2, α-glucosidase; assay: Fluorescence quenching analysis; assay type: binding; settings: for Ksv: quenching constant; for Kq: quenching rate constant, same cell as Ksv; for ∆S: van't Hoff, from 20, 31 and 37 °C (one value per inhibitor, repeated in the grid)
Procedure: α-Glucosidase (1 μM) was mixed with different concentrations of inhibitors (0–15 μM) at 20, 31, and 37°C, respectively, and the fluorescence spectra of mixed solutions were determined after equilibration for 5 min at an excitation wavelength of 250 nm. Both the excitation and emission slits were set at 10 nm. The quenching rate constant (Kq), binding constant (Ka), the number of the binding sites (n), and thermodynamic parameters enthalpy change (ΔH) and entropy change (ΔS) were calculated according to the Stern-Volmer Eq. 2 and the van’t Hoff Eqs 3–5, which were listed as follows ([Xu et al., 2019]): F0/F = 1 + Ksv[Q] = 1 + Kqτ0[Q] (2) log((F0-F)/F) = logKa+ nlogQ (3) lnKa= (-1/T(ΔH/R)) + ΔS/R (4) ΔG = ΔH-TΔS (5) Where F0 and F represent the fluorescence intensities in the absence or presence of inhibitor, [Q] denote the concentration of inhibitor, τ0 is the constant of the lifetime of fluorophore (10^–8 s) and R is the gas constant of 8.31 J/(mol × K).

[8] = inhibition constant, from Dixon plots
[9] = inhibitor binding with free enzyme, slope (Km/Vm) versus inhibitor concentration
[10] = sample concentration which led to 50% enzyme activity loss, pNPG substrate, pH 6.8, 37°C, read-out: IC50

T1 sequence (P53341 whole entry): as above

CC1(C)CCc2cc(C3=C(O)C(=Cc4ccc5c(c4)CC(C(C)(C)O)O5)OC3=O)ccc2O1 (stereo not shown) [Compound 3, Aspulvinone X]
IC50 [1]: 38.6 ± 5.2 µM

O=C1O/C(=C\c2ccc(O)cc2)C(O)=C1c1ccc(O)cc1 [Aspulvinone E]
IC50 (α-glucosidase [2]): 2.7 µM

O=C1O/C(=C/c2ccc(O)cc2)C(O)=C1c1ccc(O)cc1 [isoaspulvinone E]
IC50 (α-glucosidase [2]): 8.92 µM

CC(C)(O)[C@H]1Cc2cc(/C=C3\OC(=O)C(c4ccc5c(c4)C[C@H](C(C)(C)O)O5)=C3O)ccc2O1 [Compound 5, aspulvinone J-CR]
IC50 [1]: 44.3 ± 8.9 µM

CC(C)=CCc1cc(/C=C2\OC(=O)C(c3ccc(O)c(CC=C(C)C)c3)=C2O)ccc1O [Compound 4, aspulvinone H]
Inhibition mode (α-glucosidase [3]): mixed-type | Ki (α-glucosidase [3]; [8]): 6.58 µM | KIS (α-glucosidase [3]): 6.62 µM | Ki (α-glucosidase [3]; [9]): 4.7 µM | postprandial blood glucose peak (female C57BL/6J mice [4]; Figure 6C (maltose), versus the negative control group): significant decrease | reduction of the AUC for postprandial plasma glucose in 2 h (female C57BL/6J mice [4]; Figure 6D (maltose 2 g/kg BW), text prints 'sucrose tolerance test'): 19.7% | blood glucose rise at 30 and 60 min (female C57BL/6J mice [5]; 25 mg/kg BW i.g., compared to negative control group): significantly suppressed | decrease of the AUC (blood glucose, 0–120 min) (female C57BL/6J mice [5]; 25 mg/kg BW i.g.): 13.2% | change of α-glucosidase CD spectrum (negative peaks at 209 and 222 nm) (α-glucosidase [6]): loss of the α-helix structure | ∆G (α-glucosidase [7]; 31 °C): -2.99 kcal/mol | ∆G (α-glucosidase [7]; 37 °C): -2.37 kcal/mol | Kd (α-glucosidase [7]; Ka, binding constant, 20 °C): 34.5 µM | Kd (α-glucosidase [7]; Ka, binding constant, 31 °C): 12.7 µM | Kd (α-glucosidase [7]; Ka, binding constant, 37 °C): 4.31 µM | Kd (α-glucosidase [7]; binding constants (Ka), order of magnitude, at the three temperatures): ~100 µM | Ksv (α-glucosidase [7]; 20 °C): 56900 L/mol | Ksv (α-glucosidase [7]; 31 °C): 55300 L/mol | Ksv (α-glucosidase [7]; 37 °C): 60200 L/mol | Kq (α-glucosidase [7]; 20 °C): 5.69e+12 M⁻¹ s⁻¹ | Kq (α-glucosidase [7]; 31 °C): 5.53e+12 M⁻¹ s⁻¹ | Kq (α-glucosidase [7]; 37 °C): 6.02e+12 M⁻¹ s⁻¹ | ∆S (α-glucosidase [7]): 240.1 J/mol/K | IC50 [1, 10]: 4.6 ± 1.3 µM

CC(C)=CCc1cc(C2=C(O)C(=Cc3ccc4c(c3)CC(C(C)(C)O)O4)OC2=O)ccc1O (stereo not shown) [Compound 2, Aspulvinone W]
IC50 [1]: 32 ± 5.8 µM

CC(C)=CCc1cc(/C=C2\OC(=O)C(c3cc4c(c(CC=C(C)C)c3)OC(C)(C)C=C4)=C2O)ccc1O [Compound 1, Aspulvinone V]
Inhibition mode (α-glucosidase [3]): mixed-type | Ki (α-glucosidase [3]; [8]): 6.6 µM | KIS (α-glucosidase [3]): 8.23 µM | Ki (α-glucosidase [3]; [9]): 3.15 µM | change of α-glucosidase CD spectrum (negative peaks at 209 and 222 nm) (α-glucosidase [6]): loss of the α-helix structure | ∆G (α-glucosidase [7]; 31 °C): -3.32 kcal/mol | ∆G (α-glucosidase [7]; 37 °C): -2.94 kcal/mol | binding constants (Ka), order of magnitude (α-glucosidase [7]; at the three temperatures): ~10^5 L/mol | Kd (α-glucosidase [7]; binding constant, 20 °C, read-out: Ka (converted)): 9.09 µM | Kd (α-glucosidase [7]; binding constant, 31 °C, read-out: Ka (converted)): 3.27 µM | Kd (α-glucosidase [7]; binding constant, 37 °C, read-out: Ka (converted)): 1.79 µM | Ksv (α-glucosidase [7]; 20 °C): 53500 L/mol | Ksv (α-glucosidase [7]; 31 °C): 78700 L/mol | Ksv (α-glucosidase [7]; 37 °C): 58100 L/mol | Kq (α-glucosidase [7]; 20 °C): 5.35e+12 M⁻¹ s⁻¹ | Kq (α-glucosidase [7]; 31 °C): 7.87e+12 M⁻¹ s⁻¹ | Kq (α-glucosidase [7]; 37 °C): 5.81e+12 M⁻¹ s⁻¹ | ∆S (α-glucosidase [7]): 148.2 J/mol/K | IC50 [1, 10]: 2.2 ± 0.4 µM

CC(C)=CCc1cc(/C=C2\OC(=O)C(c3cc(CC=C(C)C)c(O)c(CC=C(C)C)c3)=C2O)ccc1O [Compound 6, aspulvinone R]
IC50 [1]: 10.8 ± 2.3 µM

C[C@H]1O[C@H](O[C@H]2[C@H](O)[C@@H](O)[C@@H](O[C@H]3[C@H](O)[C@@H](O)C(O)O[C@@H]3CO)O[C@@H]2CO)[C@H](O)[C@@H](O)[C@@H]1N[C@H]1C=C(CO)[C@@H](O)[C@H](O)[C@H]1O (stereo partly shown) [Acarbose, reference compound]
decrease of the AUC (blood glucose, 0–120 min) (female C57BL/6J mice [5]; 50 mg/kg BW i.g.): 11.8%
